Consider 20 compounds from patent US20230278983A1, “INDOLE DERIVATIVES AND USES THEREOF FOR TREATING A CANCER” (Universite Claude Bernard Lyon 1, priority 2020, published 2023).

This assay deals with CK2 (Homo sapiens (Human), UniProt P68400). Description: Radiometric CK2 kinase assay. The class given is biochemical.
The mark [1] stands for this setting: inhibition of CK2 activity, ATP 10 μM.

Where two headings read alike, the source gives them in different places.

CK2, sequence (P68400 whole entry): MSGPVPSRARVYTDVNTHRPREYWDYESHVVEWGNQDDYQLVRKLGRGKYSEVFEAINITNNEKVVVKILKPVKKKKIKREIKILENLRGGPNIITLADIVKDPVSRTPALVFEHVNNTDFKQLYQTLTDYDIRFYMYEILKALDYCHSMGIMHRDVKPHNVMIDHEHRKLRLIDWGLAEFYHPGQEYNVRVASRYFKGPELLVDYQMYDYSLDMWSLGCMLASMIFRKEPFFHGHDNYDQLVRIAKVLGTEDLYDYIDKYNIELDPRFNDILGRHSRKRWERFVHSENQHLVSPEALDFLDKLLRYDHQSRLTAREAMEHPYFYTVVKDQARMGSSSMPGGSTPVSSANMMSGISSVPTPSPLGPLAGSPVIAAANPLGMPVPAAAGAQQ

In the case of `O=S(=O)(NCCN1CCC(Cn2cc(-c3c[nH]c4ccccc34)nn2)CC1)c1ccccc1` [AB150, N-(2-(4-((4-(1H-Indol-3-yl)-1H-1,2,3-triazol-1-yl)methyl)piperidin-1-yl)ethyl)benzenesulfonamide], the IC50 (usually the concentration at which inhibition is half-maximal) stood at 48500 nM. `O=S(=O)(NCCN1CCC(Cn2cc(-c3c[nH]c4ccccc34)nn2)CC1)c1ccc(Cl)cc1` [AB152, N-(2-(4-((4-(1H-Indol-3-yl)-1H-1,2,3-triazol-1-yl)methyl)piperidin-1-yl)ethyl)-4-chlorobenzenesulfonamide] had an IC50 of 35000 nM. Still for that read-out and setting: to `O=S(=O)(NCCN1CCC(Cn2cc(-c3c[nH]c4ccc(F)cc34)nn2)CC1)c1ccc(Cl)cc1` [AB153, 4-Chloro-N-(2-(4-((4-(5-fluoro-1H-indol-3-yl)-1H-1,2,3-triazol-1-yl)methyl)piperidin-1-yl)ethyl)benzenesulfonamide] belongs 15100 nM. `O=C(O)c1[nH]c2ccc(Cl)cc2c1-c1cn(CC2CCN(CCNS(=O)(=O)c3ccc(Cl)cc3)CC2)nn1` [AB201, 5-Chloro-3-(1-((1-(2-((4-chlorophenyl)sulfonamido)ethyl)piperidin-4-yl)methyl)-1H-1,2,3-triazol-4-yl)-1H-indole-2-carboxylic acid] had an IC50 under setting [1] of 10100 nM. Compound `O=C(O)c1[nH]c2cc(Cl)ccc2c1-c1cn(CC2CCN(CCNS(=O)(=O)c3ccc(Cl)cc3)CC2)nn1` [AB202, 6-Chloro-3-(1-((1-(2-((4-chlorophenyl)sulfonamido)ethyl)piperidin-4-yl)methyl)-1H-1,2,3-triazol-4-yl)-1H-indole-2-carboxylic acid] registered an IC50 under setting [1] of 12100 nM. In the case of `CCOC(=O)c1[nH]c2ccc(F)cc2c1-c1cn(CC2CCN(CCNS(=O)(=O)c3ccc(Cl)cc3)CC2)nn1` [AB401, Ethyl 3-(1-((1-(2-((4-chlorophenyl)sulfonamido)ethyl)piperidin-4-yl)methyl)-1H-1,2,3-triazol-4-yl)-5-fluoro-1H-indole-2-carboxylate], the IC50 came to 980 nM. Regarding `CCOC(=O)c1[nH]c2cc(Cl)ccc2c1-c1cn(CC2CCN(CCNS(=O)(=O)c3ccc(Cl)cc3)CC2)nn1` [AB433, Ethyl 6-chloro-3-(1-((1-(2-((4-chlorophenyl)sulfonamido)ethyl)piperidin-4-yl)methyl)-1H-1,2,3-triazol-4-yl)-1H-indole-2-carboxylate], the IC50 amounted to 8100 nM. For `CCOC(=O)c1[nH]c2ccc(Cl)cc2c1-c1cn(CC2CCN(CCNS(=O)(=O)c3ccc(Cl)cc3)CC2)nn1` [AB460, Ethyl 5-chloro-3-(1-((1-(2-((4-chlorophenyl)sulfonamido)ethyl)piperidin-4-yl)methyl)-1H-1,2,3-triazol-4-yl)-1H-indole-2-carboxylate], half-maximal inhibition (IC50) required 2510 nM.

As to `CC(C)COC(=O)c1[nH]c2ccc(F)cc2c1-c1cn(CC2CCN(CCNS(=O)(=O)c3ccc(Cl)cc3)CC2)nn1` [AB498, Isobutyl 3-(1-((1-(2-((4-chlorophenyl)sulfonamido)ethyl)piperidin-4-yl)methyl)-1H-1,2,3-triazol-4-yl)-5-fluoro-1H-indole-2-carboxylate], the IC50 was 830 nM. On to `CC(C)COC(=O)c1[nH]c2ccc(Cl)cc2c1-c1cn(CC2CCN(CCNS(=O)(=O)c3ccc(Cl)cc3)CC2)nn1` [AB499, Isobutyl 5-chloro-3-(1-((1-(2-((4-chlorophenyl)sulfonamido)ethyl)piperidin-4-yl)methyl)-1H-1,2,3-triazol-4-yl)-1H-indole-2-carboxylate], for which the midpoint of inhibition, the IC50, lay at 670 nM. For `CCOC(=O)c1[nH]c2cc(Cl)ccc2c1-c1cn(CC2CCN(CCNS(=O)(=O)c3ccc(C)cc3)CC2)nn1` [AB503, Ethyl 6-chloro-3-(1-((1-(2-((4-methylphenyl)sulfonamido)ethyl)piperidin-4-yl)methyl)-1H-1,2,3-triazol-4-yl)-1H-indole-2-carboxylate], it took 9850 nM to reach half-maximal inhibition (IC50). The compound `CCOC(=O)c1[nH]c2ccc(F)cc2c1-c1cn(CC2CCN(CCNS(=O)(=O)c3ccc(C)cc3)CC2)nn1` [AB504, Ethyl 5-fluoro-3-(1-((1-(2-((4-methylphenyl)sulfonamido)ethyl)piperidin-4-yl)methyl)-1H-1,2,3-triazol-4-yl)-1H-indole-2-carboxylate] registered a 50% inhibitory concentration (IC50) of 1800 nM. Compound `CCOC(=O)c1[nH]c2ccc(Cl)cc2c1-c1cn(CC2CCN(CCNS(=O)(=O)c3ccc(C)cc3)CC2)nn1` [AB505, Ethyl 5-chloro-3-(1-((1-(2-((4-methylphenyl)sulfonamido)ethyl)piperidin-4-yl)methyl)-1H-1,2,3-triazol-4-yl)-1H-indole-2-carboxylate] returned an IC50 of 3760 nM. Still for that read-out and setting: the same measure for `CCOC(=O)c1[nH]c2ccc(F)cc2c1-c1cn(CC2CCN(CCNS(=O)(=O)c3ccc(C(F)(F)F)cc3)CC2)nn1` [AB529, Ethyl 5-fluoro-3-(1-((1-(2-((4-(trifluoromethyl)phenyl)sulfonamido)ethyl)piperidin-4-yl)methyl)-1H-1,2,3-triazol-4-yl)-1H-indole-2-carboxylate]: 700 nM; for `CCOC(=O)c1[nH]c2ccc(F)cc2c1-c1cn(CC2CCN(CCNS(=O)(=O)c3ccc4ccccc4c3)CC2)nn1` [AB536, Ethyl 5-fluoro-3-(1-((1-(2-(naphthalene-2-sulfonamido)ethyl)piperidin-4-yl)methyl)-1H-1,2,3-triazol-4-yl)-1H-indole-2-carboxylate]: 800 nM; for `CCOC(=O)c1[nH]c2ccc(Cl)cc2c1-c1cn(CC2CCN(CCNS(=O)(=O)c3ccc(CC)cc3)CC2)nn1` [AB543, Ethyl 5-chloro-3-(1-((1-(2-((4-ethylphenyl)sulfonamido)ethyl)piperidin-4-yl)methyl)-1H-1,2,3-triazol-4-yl)-1H-indole-2-carboxylate]: 930 nM. The compound `CCOC(=O)c1[nH]c2ccc(Cl)cc2c1-c1cn(CC2CCN(CCNS(=O)(=O)c3ccc(C(F)(F)F)cc3)CC2)nn1` [AB550, Ethyl 5-chloro-3-(1-((1-(2-((4-(trifluoromethyl)phenyl)sulfonamido)ethyl)piperidin-4-yl)methyl)-1H-1,2,3-triazol-4-yl)-1H-indole-2-carboxylate] had an IC50 of 2240 nM.

As for `CCOC(=O)c1[nH]c2ccc(Cl)cc2c1-c1cn(CC2CCN(CCNS(=O)(=O)c3ccc4ccccc4c3)CC2)nn1` [AB551, Ethyl 5-chloro-3-(1-((1-(2-(naphthalene-2-sulfonamido)ethyl)piperidin-4-yl)methyl)-111-1,2,3-triazol-4-yl)-1H-indole-2-carboxylate], the IC50 turned out to be 1780 nM. `CCc1ccc(S(=O)(=O)NCCN2CCC(Cn3cc(-c4c(C(=O)OCC(C)C)[nH]c5ccc(F)cc45)nn3)CC2)cc1` [AB556, Isobutyl 3-(1-((1-(2-((4-ethylphenyl)sulfonamido)ethyl)piperidin-4-yl)methyl)-1H-1,2,3-triazol-4-yl)-5-fluoro-1H-indole-2-carboxylate] registered an IC50 of 170 nM.

Regarding `CCc1ccc(S(=O)(=O)NCCN2CCC(Cn3cc(-c4c(C(=O)OCC(C)C)[nH]c5ccc(Cl)cc45)nn3)CC2)cc1` [AB557, Isobutyl 5-chloro-3-(1-((1-(2-((4-ethylphenyl)sulfonamido)ethyl)piperidin-4-yl)methyl)-1H-1,2,3-triazol-4-yl)-1H-indole-2-carboxylate], the IC50 came out at 560 nM.
